Experimental data from the NIST ThermoML archive (doi:10.1016/j.jct.2018.03.013).

How the values were obtained:
[1] = xn = mol fraction of the nth substance listed; conditions: 100 kPa, Liquid, x1 = 1; for speed of sound: Frequency=3 MHz, Linear variable-path acoustic interferometer; for mass density: Pycnometric method
[2] = 100 kPa, Liquid; for speed of sound: Frequency=3 MHz, Linear variable-path acoustic interferometer; for mass density: Pycnometric method

CC#N [acetonitrile] + C=C(C)C(=O)OCC
[1]
Conditions	mass density [kg/m3]	speed of sound [m/s]
293.15 K	782.12	1304.7
298.15 K	776.82	1282.8
303.15 K	771.52	1263.9
308.15 K	766.21	1245
313.15 K	760.9	1226.5
318.15 K	755.59	1207.9

C=C(C)C(=O)OCCCC [butyl 2-methyl-2-propenoate]
[2]
Conditions	mass density [kg/m3]	speed of sound [m/s]
293.15 K	895.19	1241.7
298.15 K	890.48	1222.1
303.15 K	885.78	1202.4
308.15 K	881.07	1183
313.15 K	876.35	1163.8
318.15 K	871.64	1145.7

C=C(C)C(=O)OC [methyl methacrylate]
[2]
Conditions	mass density [kg/m3]	speed of sound [m/s]
293.15 K	943.38	1200.5
298.15 K	937.64	1183.6
303.15 K	931.9	1168.5
308.15 K	926.16	1152.6
313.15 K	920.42	1135.4
318.15 K	914.67	1118.3

CC#N [acetonitrile] + C=C(C)C(=O)OCCCC
[1]
Conditions	mass density [kg/m3]	speed of sound [m/s]
293.15 K	782.12	1304.7
298.15 K	776.82	1282.8
303.15 K	771.52	1263.9
308.15 K	766.21	1245
313.15 K	760.9	1226.5
318.15 K	755.59	1207.9

C=C(C)C(=O)OCC [ethyl 2-methylpropenoate]
[2]
Conditions	mass density [kg/m3]	speed of sound [m/s]
293.15 K	912.3	1196.8
298.15 K	907.18	1176.9
303.15 K	902.06	1157.6
308.15 K	896.94	1139.4
313.15 K	891.83	1121.5
318.15 K	886.71	1104.6

CC#N [acetonitrile]
[2]
Conditions	mass density [kg/m3]	speed of sound [m/s]
293.15 K	782.12	1304.7
298.15 K	776.82	1282.8
303.15 K	771.52	1263.9
308.15 K	766.21	1245
313.15 K	760.9	1226.5
318.15 K	755.59	1207.9

CC#N [acetonitrile] + C=C(C)C(=O)OC
[1]
Conditions	mass density [kg/m3]	speed of sound [m/s]
293.15 K	782.12	1304.7
298.15 K	776.82	1282.8
303.15 K	771.52	1263.9
308.15 K	766.21	1245
313.15 K	760.9	1226.5
318.15 K	755.59	1207.9
